According to patent US20070010532A1, “3-Pyridylcarboxamide derivatives as pesticidal agents” (BAYER CROPSCIENCE GMBH, priority 2003, published 2007):

Experiments:
[1] = tested on: black bean aphids (Aphis fabae); assay: Method A: field bean plants (Vicia faba) and aphids dipped into aqueous solution of the formulated preparation; type: in vivo; settings: read-out: mortality among the aphids
Experimental: Germinated field bean seeds (Vicia faba) with seed roots were transferred into brown glass bottles filled with tap water and then populated with about 100 black bean aphids (Aphis fabae). Plants and aphids were then dipped into an aqueous solution of the formulated preparation to be examined for 5 seconds. After they had drained, plants and animals were stored in a climatized chamber (16 hours of light/day, 25° C., 40-60% relative atmospheric humidity). After 3 and 6 days of storage, the effect of the preparation on the aphids was determined. […]

[2] = tested on: black bean aphids (Aphis fabae); assay: Method B: root-systemic action, preparation pipetted into the bottle of field bean (Vicia faba) populated with aphids; type: in vivo; settings: read-out: mortality among the aphids, by root-systemic action
Experimental: Germinated field bean seeds (Vicia faba) with seed roots were transferred into brown glass bottles filled with tap water and then populated with about 100 black bean aphids (Aphis fabae). Plants and aphids were then dipped into an aqueous solution of the formulated preparation to be examined for 5 seconds. After they had drained, plants and animals were stored in a climatized chamber (16 hours of light/day, 25° C., 40-60% relative atmospheric humidity). After 3 and 6 days of storage, the effect of the preparation on the aphids was determined. […] Method B:
Germinated field bean seeds (Vicia faba) with seed roots were transferred into brown glass bottles filled with tap water. Four milliliters of an aqueous solution of the formulated preparation to be examined were pipetted into the brown glass bottle. The field bean was then heavily populated with about 100 black bean aphids (Aphis fabae). Plants and aphids were then stored in a climatized chamber (16 hours of light/day, 25° C., 40-60% relative atmospheric humidity). After 3 and 6 days of storage, the root-systemic effect of the preparation on the aphids was determined.

Row | SMILES | mortality at 300 ppm [1] [%] | mortality at 30 ppm [2] [%]
1 | CSC1=N/C(=N\C(=O)c2cnccc2C(F)(F)F)N(C(C)=O)C1(C)C [Compound E-135, N-[(2Z)-1-acetyl-5,5-dimethyl-4-methylthio-1,5-dihydro-2H-imidazol-2-ylidene]-4-(trifluoromethyl)nicotinamide] | 90 to 100 | 90 to 100
2 | CCC1(C)N/C(=N/C(=O)c2cnccc2C(F)(F)F)NC1=O (stereo not drawn) [Compound B-91, N-[(2Z)-4-ethyl-4-methyl-5-oxo-2-imidazolidinylidene]-4-(trifluoromethyl)nicotinamide] | 90 to 100 | 90 to 100
3 | CC1(C)N/C(=N/C(=O)c2cnccc2C(F)(F)F)N(Cc2ccc(Cl)cc2)C1=O [Compound B-529, N-[(2Z)-1-(4-chlorobenzyl)-4,4-dimethyl-5-oxo-2-imidazolidinylidene]-4-(trifluoromethyl)nicotinamide] | 90 to 100 | 90 to 100
